Measurements reported in patent publication US12661410B2, “Compounds for targeted degradation of RET” (C4 Therapeutics, Inc., priority 2020, dated 2026).
Where a chain is given by its changes, count along the chain named. Where two headings read alike, the source gives them in different places.

Key:
RET(KD: 658-1114 G810R) = target: T1, RET(KD: 658-1114 G810R) (Homo sapiens, UniProt P07949, G810R); experiment: HiBiT-Degradation, RET G810R degradation assay (Nano-Glo HiBiT Lytic), 293T.165 cells; format: cell-based; conditions: for Emax / DC50: 6.0 hours
T1 construct: 658-1114; expressed in transfected cells; host or cells: 293T.165 (293T cells, generated in-house)
T1 sequence (P07949 658-1114 G810R): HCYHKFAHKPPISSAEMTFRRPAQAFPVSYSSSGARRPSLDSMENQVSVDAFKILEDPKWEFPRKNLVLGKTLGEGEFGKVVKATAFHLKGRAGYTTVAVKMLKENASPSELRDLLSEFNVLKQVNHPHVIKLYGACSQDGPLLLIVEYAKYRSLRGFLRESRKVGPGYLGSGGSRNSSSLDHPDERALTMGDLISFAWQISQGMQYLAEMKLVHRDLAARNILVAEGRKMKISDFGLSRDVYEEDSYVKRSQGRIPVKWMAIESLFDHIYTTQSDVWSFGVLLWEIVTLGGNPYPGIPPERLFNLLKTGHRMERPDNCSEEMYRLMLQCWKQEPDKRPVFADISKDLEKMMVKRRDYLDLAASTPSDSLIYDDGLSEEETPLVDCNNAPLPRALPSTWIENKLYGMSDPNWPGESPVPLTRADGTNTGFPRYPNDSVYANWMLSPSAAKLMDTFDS
Procedure, shortened: (§1)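 Degradation after 6 h compound exposure (top 10 μM, 11 half-log points, duplicates) measured by Nano-Glo HiBiT lytic luminescence. Cells: 293T.144 carrying wild-type and 293T.165 carrying G810R HiBiT-RET kinase domain; curves yield DC50 and Emax.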

RET (658-1114) = target: T2, RET (658-1114) (Homo sapiens, UniProt P07949); experiment: HiBiT-Degradation, RET wild-type degradation assay (Nano-Glo HiBiT Lytic), 293T.144 cells; format: cell-based; conditions: for DC50 / Emax: 6.0 hours
T2 construct: 658-1114; expressed in transfected cells; host or cells: 293T.144 (293T cells, generated in-house)
T2 sequence (P07949 658-1114): T1 sequence (P07949 658-1114 G810R) with R153G
Procedure, shortened: as §1

[1] = % remaining protein, read-out: 293T.165 RET(KD: 658-1114 G810R) 6.0 hours (Emax)
[2] = half-maximal degradation concentration, read-out: 293T.165 RET(KD: 658-1114 G810R) 6.0 hours (DC50)
[3] = HiBiT-Degradation, read-out: 293T.165 RET(KD: 658-1114 G810R) 6.0 hours (DC50)
[4] = HiBiT-Degradation, read-out: 293T.144 RET (658-1114) 6.0 hours (DC50)
[5] = HiBiT-Degradation, read-out: 293T.144 RET (658-1114) 6.0 hours (Emax)
[6] = % remaining protein, read-out: 293T.144 RET (658-1114) 6.0 hours (Emax)
[7] = half-maximal degradation concentration, read-out: 293T.144 RET (658-1114) 6.0 hours (DC50)

Row | Compound | Emax (RET(KD: 658-1114 G810R); [1]) | DC50 (RET(KD: 658-1114 G810R); [2]) | HiBiT-Degradation 293T.165 RET(KD: 658-1114 G810R) 6.0 hours (IP) [nM] (RET(KD: 658-1114 G810R); RET G810R) | DC50 (RET(KD: 658-1114 G810R); RET G810R, read-out: HiBiT-Degradation 293T.165 RET(KD: 658-1114 G810R) 6.0 hours (DC50)) | Emax (RET(KD: 658-1114 G810R); RET G810R, read-out: HiBiT-Degradation 293T.165 RET(KD: 658-1114 G810R) 6.0 hours (Emax)) | HiBiT-Degradation 293T.144 RET (658-1114) 6.0 hours (IP) [nM] (RET (658-1114); RET wild-type) | DC50 (RET (658-1114); RET wild-type, read-out: HiBiT-Degradation 293T.144 RET (658-1114) 6.0 hours (DC50)) | Emax (RET (658-1114); RET wild-type, read-out: HiBiT-Degradation 293T.144 RET (658-1114) 6.0 hours (Emax)) | 293T.165 RET(KD: 658-1114 G810R) 6.0 hours (Emax) (RET(KD: 658-1114 G810R); HiBiT-Degradation) | 293T.165 RET(KD: 658-1114 G810R) 6.0 hours (IP) [nM] (RET(KD: 658-1114 G810R); HiBiT-Degradation) | DC50 (RET(KD: 658-1114 G810R); [3]) | 293T.144 RET (658-1114) 6.0 hours (IP) [nM] (RET (658-1114); HiBiT-Degradation) | DC50 (RET (658-1114); [4]) | Emax (RET (658-1114); [5]) | 293T.165 RET(KD: 658-1114 G810R) 6.0 hours (IP) [nM] (RET(KD: 658-1114 G810R)) | 293T.144 RET (658-1114) 6.0 hours (IP) [nM] (RET (658-1114)) | Emax (RET (658-1114); [6]) | DC50 (RET (658-1114); [7])
1 | CC(C)NC(=O)C1(C)CCN(c2ccc(-c3cc(-c4ccc(N5CCN(C(=O)CN6CCC(c7ccc(NC8CCC(=O)NC8=O)cc7F)CC6)CC5)cc4)cn4ncc(C#N)c34)cc2)CC1 (stereo not drawn) [Compound 50, 1-[4-[3-cyano-6-[4-[4-[2-[4-[4-[(2,6-dioxo-3-piperidyl)amino]-2-fluoro-phenyl]-1-piperidyl]acetyl]piperazin-1-yl]phenyl]pyrazolo[1,5-a]pyridin-4-yl]phenyl]-N-isopropyl-4-methyl-piperidine-4-carboxamide] | < 30% | < 100 nM | – | – | – | – | – | – | ++++ (< 30% = ++++) | ++++ (< 50 nM = ++++) | < 100 nM | ++++ (< 50 nM = ++++) | < 50 nM | < 30% | – | – | – | –
2 | CC(C)NC(=O)C1(C)CCN(c2ccc(-c3cc(-c4ccc(N5CCN(C(=O)CN6CCC(c7ccc(NC8CCC(=O)NC8=O)cc7)CC6)CC5)cc4)cn4ncc(C#N)c34)cn2)CC1 (stereo not drawn) [Compound 35, 1-(5-(3-Cyano-6-(4-(4-(2-(4-(4-((2,6-dioxopiperidin-3-yl)amino)phenyl)piperidin-1-yl)acetyl)piperazin-1-yl)phenyl)pyrazolo[1,5-a]pyridin-4-yl)pyridin-2-yl)-N-isopropyl-4-methylpiperidine-4-carboxamide] | < 30% | < 50 nM | – | – | – | – | – | – | ++++ (< 30% = ++++) | ++++ (< 50 nM = ++++) | < 50 nM | ++++ (< 50 nM = ++++) | < 50 nM | < 30% | – | – | – | –
3 | CCC1(C(=O)NC2CCC2)CCN(c2ccc(-c3cc(-c4cnn(C5CCN(C(=O)CN6CCC(c7ccc(NC8CCC(=O)NC8=O)cc7F)CC6)CC5)c4)cn4ncc(C#N)c34)cn2)CC1 (stereo not drawn) [Compound 8, 1-(5-(3-Cyano-6-(1-(1-(2-(4-(4-((2,6-dioxopiperidin-3-yl)amino)-2-fluorophenyl)piperidin-1-yl)acetyl)piperidin-4-yl)-1H-pyrazol-4-yl)pyrazolo[1,5-a]pyridin-4-yl)pyridin-2-yl)-N-cyclobutyl-4-ethylpiperidine-4-carboxamide] | < 30% | < 50 nM | – | – | – | – | – | – | ++++ (< 30% = ++++) | ++++ (< 50 nM = ++++) | < 50 nM | ++++ (< 50 nM = ++++) | < 50 nM | < 30% | – | – | – | –
4 | N#Cc1cnn2cc(-c3ccc(N4CCN(C(=O)CN5CCC(c6ccc(NC7CCC(=O)NC7=O)cc6)CC5)CC4)cc3)cc(-c3ccc(N4CCN(CCc5ccccn5)CC4)nc3)c12 (stereo not drawn) [Compound 18, 6-(4-(4-(2-(4-(4-((2,6-Dioxopiperidin-3-yl)amino)phenyl)piperidin-1-yl)acetyl)piperazin-1-yl)phenyl)-4-(6-(4-(2-(pyridin-2-yl)ethyl)piperazin-1-yl)pyridin-3-yl)pyrazolo[1,5-a]pyridine-3-carbonitrile] | < 30% | < 100 nM | – | – | – | – | – | – | ++++ (< 30% = ++++) | ++++ (< 50 nM = ++++) | < 100 nM | ++++ (< 50 nM = ++++) | < 50 nM | < 30% | – | – | – | –
5 | CN(C)c1ccc(-c2cc(-c3cnn([C@H]4CC[C@@H](CCN5CCC(c6ccc(NC7CCC(=O)NC7=O)cc6)CC5)CC4)c3)cn3ncc(C#N)c23)cn1 (stereo partly drawn) [Compound 43, 4-[6-(dimethylamino)-3-pyridyl]-6-[1-[(1s,4s)-4-[2-[4-[4-[(2,6-dioxo-3-piperidyl)amino]phenyl]-1-piperidyl]ethyl]cyclohexyl]pyrazol-4-yl]pyrazolo[1,5-a]pyridine-3-carbonitrile] | < 50% | < 100 nM | – | – | – | – | – | – | +++ (<50% = +++) | ++++ (< 50 nM = ++++) | < 100 nM | ++++ (< 50 nM = ++++) | < 50 nM | < 30% | – | – | – | –

Now from value to compound:

Row | Emax (RET(KD: 658-1114 G810R); [1]) | DC50 (RET(KD: 658-1114 G810R); [2]) | HiBiT-Degradation 293T.165 RET(KD: 658-1114 G810R) 6.0 hours (IP) [nM] (RET(KD: 658-1114 G810R); RET G810R) | DC50 (RET(KD: 658-1114 G810R); RET G810R, read-out: HiBiT-Degradation 293T.165 RET(KD: 658-1114 G810R) 6.0 hours (DC50)) | Emax (RET(KD: 658-1114 G810R); RET G810R, read-out: HiBiT-Degradation 293T.165 RET(KD: 658-1114 G810R) 6.0 hours (Emax)) | HiBiT-Degradation 293T.144 RET (658-1114) 6.0 hours (IP) [nM] (RET (658-1114); RET wild-type) | DC50 (RET (658-1114); RET wild-type, read-out: HiBiT-Degradation 293T.144 RET (658-1114) 6.0 hours (DC50)) | Emax (RET (658-1114); RET wild-type, read-out: HiBiT-Degradation 293T.144 RET (658-1114) 6.0 hours (Emax)) | 293T.165 RET(KD: 658-1114 G810R) 6.0 hours (Emax) (RET(KD: 658-1114 G810R); HiBiT-Degradation) | 293T.165 RET(KD: 658-1114 G810R) 6.0 hours (IP) [nM] (RET(KD: 658-1114 G810R); HiBiT-Degradation) | DC50 (RET(KD: 658-1114 G810R); [3]) | 293T.144 RET (658-1114) 6.0 hours (IP) [nM] (RET (658-1114); HiBiT-Degradation) | DC50 (RET (658-1114); [4]) | Emax (RET (658-1114); [5]) | 293T.165 RET(KD: 658-1114 G810R) 6.0 hours (IP) [nM] (RET(KD: 658-1114 G810R)) | 293T.144 RET (658-1114) 6.0 hours (IP) [nM] (RET (658-1114)) | Emax (RET (658-1114); [6]) | DC50 (RET (658-1114); [7]) | Compound
6 | < 30% | < 50 nM | ++++ (< 50 nM = ++++) | < 50 nM | < 30% | ++++ (< 50 nM = ++++) | < 50 nM | < 30% | – | – | – | – | – | – | – | – | – | – | CCC1(C(=O)NC2CCC2)CCN(c2ccc(-c3nc(-c4cnn(C5CCN(C(=O)CC6(O)CCN(c7ccc(NC8CCC(=O)NC8=O)cc7F)CC6)CC5)c4)cn4ncc(C#N)c34)cn2)CC1 (stereo not drawn) [Compound 81, 1-[5-[3-cyano-6-[1-[1-[2-[1-[4-[(2,6-dioxo-3-piperidyl)amino]-2-fluoro-phenyl]-4-hydroxy-4-piperidyl]acetyl]-4-piperidyl]pyrazol-4-yl]pyrazolo[1,5-a]pyrazin-4-yl]-2-pyridyl]-N-cyclobutyl-4-ethyl-piperidine-4-carboxamide]
7 | < 30% | < 50 nM | – | – | – | – | – | – | – | – | – | – | – | – | ++++ (<50 nM = ++++) | ++++ (<50 nM = ++++) | < 30% | < 50 nM | CCC1(C(=O)NC2CCC2)CCN(c2ccc(-c3nc(-c4cnn([C@H]5C[C@](F)(CN6CCN(c7ccc(N[C@@H]8CCC(=O)NC8=O)cc7F)CC6)C5)c4)cn4ncc(C#N)c34)cn2)CC1 [Compound 187, 1-[5-[3-cyano-6-[1-[3-[[4-[4-[[(3R)-2,6-dioxo-3-piperidyl]amino]-2-fluoro-phenyl]piperazin-1-yl]methyl]-3-fluoro-cyclobutyl]pyrazol-4-yl]pyrazolo[1,5-a]pyrazin-4-yl]-2-pyridyl]-N-cyclobutyl-4-ethyl-piperidine-4-carboxamide]
8 | < 30% | < 50 nM | – | – | – | – | – | – | – | – | – | – | – | – | ++++ (<50 nM = ++++) | ++++ (<50 nM = ++++) | < 30% | < 50 nM | COc1ccc(NC2CCN(c3ccc(-c4nc(-c5cnn([C@H]6CC[C@@H](N7CCN(c8c(F)cc(NC9CCC(=O)NC9=O)cc8F)CC7)CC6)c5)cn5ncc(C#N)c45)cn3)CC2)cn1 (single isomer, unassigned) [Compound 203, 6-(1-((1s, 4s)-4-(4-(4-((2,6-Dioxopiperidin-3-yl)amino)-2,6-difluorophenyl)piperazin-1-yl)cyclohexyl)-1H-pyrazol-4-yl)-4-(6-(4-((6-methoxypyridin-3-yl)amino)piperidin-1-yl)pyridin-3-yl)pyrazolo[1,5-a]pyrazine-3-carbonitrile]
